Numbers after ± are expanded uncertainties.

The conditions of series [1]: DTA.
Series [2] is described as follows: Molar enthalpy of transition or fusion. To be noted: Crystal; DSC.

With `CC(C)(Sc1cc(C(C)(C)C)c(O)c(C(C)(C)C)c1)Sc1cc(C(C)(C)C)c(O)c(C(C)(C)C)c1` [probucol], in series [1] (Crystal), the Normal melting temperature amounted to 125.90 ± 0.5 °C. For the same compound, in series [1] (Glass), the Glass transition temperature came to 25.00 ± 4 °C. Further, the “Molar enthalpy of transition or fusion” value in series [2] was found to be 7.65 ± 0.222 kcal/mol.

The record behind these values is the NIST ThermoML archive (doi:10.1016/j.tca.2014.09.007).
